Measured values taken from US4116963A, “3,3,3-Triarylalkyl-4-phenylalkyl-4-hydroxy piperidines and related compounds” (G.D. Searle & Co., priority 1977, dated 1978).

Columns and labels:
[1] = test system: mice; assay: CECAL (Charcoal Meal Test); type: in vivo; conditions: Mus musculus, po; i.g., 1 hour prior to the charcoal meal; antidiarrheal effect; read-out: Cecal Test (CT) ED50
Method: The antidiarrheal effect of the compounds of the present invention are shown by the following test:
CECAL (Charcoal Meal Test)
Mice weighing 18-24 grams and previously fasted for 24 hours are each given orally 0.2 ml of a suspension containing 10% charcoal and 1% methylcellulose. The test compounds are administered intragastrically 1 hour prior to the charcoal meal. 3.5 Hours after administration of the meal the mice are sacrificed by cervical dislocation and the cecum is examined for the presence or absence of charcoal on an all or none basis. Each compound is tested at three dose levels (typically 30, 10, 3 mg/kg) in groups of 6 mice per dose level. Control groups of mice given vehicle only were run concurrently with each test group.

[2] = test system: mice; assay: Mouse Hot Plate Test; type: in vivo; conditions: for ED50: Mus musculus, printed "mg/kg k.g.", hot plate 55± 0.3° C., analgesic effect, read-out: Hot Plate (HP) ED50; for Relative Constipation Specificity HP/CT: ratio of Hot Plate ED50 to Cecal Test ED50
Method: The assessment of the analgesic effect of the instant compounds was conducted in the mouse hot plate and tail clip tests.
A mouse (adult male weighing 18-25 grams) is placed in a restraining cylinder on a hot plate with the temperature controlled at 55± 0.3° C. The reaction time of the mouse to lick a foot or jump is measured at 60, 40 and 20 minutes before and 30, 60, 90, and 120 minutes after administration of the test compound. The "normal" reaction time is measured as the median of the three pretreatment reaction times. A positive response consists of a reaction time greater than twice the normal time at any of the post treatment times. A dose of the test compound is considered active when 50 percent or more of the animals used show a positive response.

[3] = test system: mice; assay: Tail Clip Test; type: in vivo, mouse; conditions: for ED50: Mus musculus, po, i.g., analgesic effect, read-out: Tail Clip (TC) ED50; for Relative Constipation Specificity TC/CT: ratio of Tail Clip ED50 to Cecal Test ED50

| Structure (SMILES) | ED50 [1] [mg/kg] | ED50 [2] [mg/kg] | Relative Constipation Specificity HP/CT [2] | ED50 [3] [mg/kg] | Relative Constipation Specificity TC/CT [3] |
| --- | --- | --- | --- | --- | --- |
| OC1(c2ccccc2)CCN(CCC(c2ccccc2)(c2ccccc2)c2ccccc2)CC1 [I, 1-(3,3,3-triphenylpropyl)-4-hydroxy-4-phenylpiperidine] | 0.39 | ~3 | 7.6 | ~3 | 7.6 |
| OC1(Cc2ccccc2)CCN(CCC(c2ccccc2)(c2ccccc2)c2ccccc2)CC1 [II, 1-(3,3,3-triphenylpropyl)-4-hydroxy-4-benzylpiperidine] | 0.6 | ~400 | 667 | ~400 | 667 |
